Laboratory results taken from PubChem BioAssay (NCI).
“And” between values parts separate entries of the source, which are not always exact repeats. Equal values may be shown once.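 Interpolation was linear, between the two tested concentrations surrounding the appropriate level; five concentrations were tested over 48 hours in 96-well plates. GI50: concentration for 50% inhibition of growth. TGI: total growth inhibition.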

Tests used:
Assay in all cases: growth of human tumour cells (NCI), 48 h
A498 renal = test system: A498 renal
ACHN renal = test system: ACHN renal
IGROV1 ovarian = test system: IGROV1 ovarian
MCF7 breast = test system: MCF7 breast
SF-295 CNS = test system: SF-295 CNS
SF-539 CNS = test system: SF-539 CNS
SW-620 colon = test system: SW-620 colon
T-47D breast = test system: T-47D breast
TK-10 renal = test system: TK-10 renal
U251 CNS = test system: U251 CNS

| SMILES | TGI (A498 renal) | TGI (ACHN renal) | TGI (IGROV1 ovarian) | TGI (MCF7 breast) | TGI (SF-295 CNS) | TGI (SF-539 CNS) | TGI (SW-620 colon) | TGI (T-47D breast) | TGI (TK-10 renal) | TGI (U251 CNS) | GI50 (A498 renal) | GI50 (ACHN renal) | GI50 (IGROV1 ovarian) | GI50 (SF-295 CNS) | GI50 (SF-539 CNS) | GI50 (T-47D breast) | GI50 (TK-10 renal) | GI50 (MCF7 breast) | GI50 (SW-620 colon) | GI50 (U251 CNS) |
| --- | --- | --- | --- | --- | --- | --- | --- | --- | --- | --- | --- | --- | --- | --- | --- | --- | --- | --- | --- | --- |
| Nc1nc(-c2cccs2)cs1 | > 100 µM | > 100 µM | > 100 µM | > 100 µM | > 100 µM | > 100 µM | > 100 µM | > 100 µM | > 100 µM | > 100 µM |  |  |  |  |  |  |  |  |  |  |
| CCCCCCNCCCNc1c2ccccc2nc2cccc([N+](=O)[O-])c12 | 0.321 µM and 0.327 µM | 0.0446 µM and 0.0858 µM | 0.0713 µM and 0.186 µM | 0.112 µM and 0.103 µM | 0.059 µM and 0.422 µM | 0.307 µM and 0.225 µM | 0.115 µM and 0.734 µM | 0.288 µM and 0.457 µM | 0.787 µM and 0.512 µM | 0.0966 µM and 0.116 µM | 0.0931 µM | 0.0151 µM | 0.0252 µM | 0.0263 µM | 0.0507 µM | 0.0503 µM | 0.0705 µM |  |  |  |
| COc1ccc(C2c3c(-c4ccccc4)nn(-c4ccccc4)c3Oc3ncn4nc(CC#N)nc4c32)cc1OC (stereo unspecified) | > 100 µM and 31.3 µM | > 100 µM and 16.1 µM | 41.7 µM and > 47 µM | > 100 µM | > 100 µM | 36.9 µM and > 27.6 µM | > 100 µM | > 54 µM | > 100 µM and 14.6 µM | 63.8 µM and 16.7 µM | > 100 µM and 10.8 µM |  | 16.8 µM and 5.81 µM |  | 19.2 µM and 2.49 µM |  | 27.8 µM and 3.31 µM | 36.5 µM and 99.4 µM | 24.2 µM and > 82.3 µM | 23.5 µM and 3.62 µM |
| CC1=CC(=O)c2ccc(C)cc2C1=O | 34.4 µM | 21 µM | 30.8 µM | 11.3 µM | 31.6 µM | 30 µM | 30.4 µM | 15 µM | 34 µM | 25.7 µM |  |  |  |  |  |  |  |  |  |  |
| O=C(O)c1ccccc1Nc1ccc2nnc(-c3ccncc3)n2n1 | 29.5 µM | 17.4 µM | 22.9 µM | 24.6 µM | 40.1 µM | 55.8 µM | 36 µM | 22.3 µM | 25 µM | 28 µM | 15.5 µM | 4.24 µM | 5.29 µM | 13.3 µM | 14.6 µM | 4.3 µM | 7.13 µM | 2.85 µM | 6.48 µM | 13.3 µM |
| Cc1ccc(C2=NN(c3ccc(S(N)(=O)=O)cc3)C(c3cn(-c4ccccc4)nc3-c3ccccc3)C2)cc1 (stereo unspecified) | 5.19 µM | > 100 µM | > 100 µM | > 100 µM | > 100 µM | > 100 µM | > 100 µM | > 100 µM | > 100 µM | > 100 µM | 1.84 µM | 9.51 µM | 28.3 µM | 73.3 µM | > 100 µM | 9.13 µM | 71.2 µM | 3.19 µM | 9.82 µM | 19.6 µM |
| C=CCSSc1ncnc2c1ncn2C1OC(CO)C(O)C1O (stereo unspecified) | > 100 µM | > 100 µM | 0.644 µM | 11.6 µM | > 100 µM | 21 µM | 23.2 µM | > 100 µM | > 42.3 µM | > 100 µM | 39.3 µM | 3.34 µM | 0.0257 µM | 2.58 µM | 2.28 µM | 0.976 µM | 0.598 µM | 0.567 µM | 4.07 µM | 13.5 µM |
| O=[N+]([O-])c1cc2c(c([N+](=O)[O-])c1)Nc1ccccc1O2 | 9.34 µM | 76.2 µM | > 100 µM | > 100 µM | 29.1 µM | 74.6 µM | > 100 µM | 10.2 µM | 46.7 µM | 22.6 µM | 1.73 µM | 6.97 µM | 7.58 µM | 4.7 µM | 13.3 µM | 2.79 µM | 9.98 µM | 4.96 µM | 10.7 µM | 3.32 µM |
| CC(=O)[O][Bi]([c]1ccccc1)[c]1ccccc1 | 32.4 µM | 24.4 µM | 6.77 µM | 7.97 µM | 33.4 µM | 24.3 µM | 5.45 µM | > 100 µM | 6.38 µM | 10.9 µM | 18.2 µM | 11.8 µM | 2.48 µM | 17.5 µM | 11.1 µM | 5.61 µM | 1.85 µM | 2.62 µM | 2.27 µM | 2.6 µM |
| CSC1(CC(=O)N2CCCCC2)C(=O)Nc2ccccc21 (stereo unspecified) | > 100 µM | > 100 µM | > 100 µM | > 100 µM | > 100 µM | > 100 µM | > 100 µM | > 100 µM | > 100 µM | > 100 µM |  |  |  |  |  |  |  |  |  |  |
| N#Cc1nn(-c2cc(=O)[nH]c3ccc(Br)cc23)c(N)c1C#N | > 100 µM | > 100 µM | > 100 µM | > 100 µM | > 100 µM | > 100 µM | > 100 µM | > 100 µM | > 100 µM | > 100 µM | > 100 µM | > 100 µM | 37.9 µM | > 100 µM | 51.7 µM | 6.46 µM | > 100 µM | 64.1 µM | > 100 µM | 88.1 µM |
| COC1=C(OC)[C@]2(OC)c3c(O)c(OC)c4c(c3O[C@@]23O[C@@H](c2ccccc2)CC=C3C1=O)[C@@H](O)C[C@H](c1ccccc1)O4 | 2.35 µM | 2.06 µM | 2.44 µM | 1.67 µM | 3.57 µM | 2.5 µM | 0.334 µM | 0.621 µM | 0.718 µM | 3.55 µM | 0.348 µM | 0.819 µM | 0.932 µM | 1.78 µM | 0.934 µM | 0.224 µM | 0.251 µM | 0.321 µM | 0.173 µM | 1.8 µM |
| CNC(=O)CN1CCC(Oc2cc3c(Nc4cccc(Cl)c4F)ncnc3cc2OC)CC1 | 11.5 µM and > 10 µM | 25.6 µM and > 10 µM | 5.37 µM and 4.3 µM | > 74.5 µM | 29.3 µM and > 10 µM | 33.4 µM and > 10 µM | 32.9 µM and > 10 µM | 18.1 µM and > 7.9 µM | 14.8 µM and > 10 µM | 45.9 µM and > 10 µM | 1.1 µM and 1.33 µM | < 0.0224 µM and 0.0561 µM | 0.303 µM and 0.084 µM | 12.5 µM and > 5.62 µM | 13.5 µM and > 5.94 µM | 1.24 µM and 0.53 µM | 0.0237 µM and 0.00744 µM | 13.8 µM and > 5 µM | 15.6 µM and > 6.56 µM | 17 µM and > 6.47 µM |
| Clc1ccc2c(NCCNc3nc(N4CCCC4)nc4ccccc34)ccnc2c1 | 3.4 µM | 3 µM | 4.6 µM | 3.86 µM | 2.88 µM | 3.25 µM | 1.45 µM | 3.99 µM | 4.2 µM | 3.15 µM | 1.8 µM | 1.64 µM | 1.65 µM | 1.47 µM | 1.76 µM | 1.6 µM | 2.07 µM | 0.156 µM | 0.1 µM | 1.49 µM |
| O=S(=O)(CCCCl)SCCCCl | > 100 µM | > 100 µM | > 67.5 µM | 52.5 µM | > 93.4 µM | 53.4 µM | 42.3 µM | 98.2 µM | > 100 µM | > 69.3 µM |  |  |  |  |  |  |  |  |  |  |
| Cc1cc2nc(C(Cl)Cl)nc(-c3ccccc3)n2n1 | 11.2 µM | 5.12 µM | 35.1 µM | > 100 µM | 15.9 µM | 25 µM | 28 µM | 89.1 µM | 51.2 µM | 24.3 µM | 2.6 µM | 1.87 µM | 5.24 µM | 3.48 µM | 3.94 µM | 4 µM | 4.73 µM | 4.06 µM | 3.22 µM | 3.13 µM |
| Cn1c(=N)n[n+]([O-])c2ccccc21 | 9.7 µM and 23.2 µM | 23.5 µM and 22 µM | 10.7 µM and 11.6 µM | 5.32 µM | 4.49 µM and 15.2 µM | 3.67 µM and 2.98 µM | > 26.8 µM | 21.5 µM and 43.2 µM | 70 µM and > 59.4 µM | 25.3 µM and 24.1 µM | 3.07 µM and 9.29 µM |  |  |  |  | 4.34 µM and 9.12 µM |  |  |  |  |
| C[C@@H]1OCC2(CCN(c3cnc(Sc4ccnc(N)c4Cl)c(N)n3)CC2)[C@@H]1N | 4.6 µM | > 100 µM | > 100 µM | > 100 µM | > 100 µM | > 100 µM | > 100 µM | > 100 µM | > 100 µM | > 100 µM | 0.128 µM | 4.71 µM | 0.801 µM | > 100 µM | 24.2 µM | 46.3 µM | 0.253 µM | > 100 µM | 88.7 µM | 9.48 µM |
| O=c1ccnc(SCc2ccc(Cl)cc2)[nH]1 | > 100 µM | > 100 µM | > 100 µM | > 100 µM | > 100 µM | > 100 µM | > 100 µM | > 100 µM | > 100 µM | > 100 µM |  |  |  |  |  |  |  |  |  |  |
| CC[CH2][Sn]([CH2]CC)([O]C(=O)Cc1ccc(F)cc1)[O][Sn]([CH2]CC)([CH2]CC)[O]C(=O)Cc1ccc(F)cc1 | 0.469 µM | 0.552 µM | 2.04 µM | 1.02 µM | 1.57 µM | 0.769 µM | 0.22 µM | 0.211 µM | 0.393 µM | 0.431 µM | 0.149 µM | 0.209 µM | 0.718 µM | 0.587 µM | 0.274 µM | 0.0296 µM | 0.125 µM | 0.105 µM | 0.0773 µM | 0.131 µM |
| Nc1c2ccccc2nc2ccccc12 (tested in a mixture with another compound) | 2.62 µM | 8.72 µM | 7.89 µM | 9.72 µM | 10.5 µM | 8.26 µM | 10.1 µM | 5.98 µM | 5.34 µM | 10.9 µM | 1.12 µM | 0.779 µM | 2.72 µM | 2.1 µM | 2.44 µM | 1.87 µM | 1.97 µM | 1.59 µM | 1.44 µM | 2.68 µM |
